Tested on: E. coli
Test: Time-kill study of E. coli exposed to ciprofloxacin, measured by infrared thermography (Energy Number)
Type: cell-based, Escherichia coli
Settings: starting inoculum approx. 2×10^6 CFU/ml, 37° C., 0-24 hours
Protocol: It was desired to evaluate utility of the system in a real-time method to measure bacterial growth and death as a function of exposure to an antimicrobial. For that purpose, time-kill studies were performed using E. coli cultures, established substantially as set forth in Example 2. A series of microtiter plates were inoculated with an overnight culture of a representative gram-negative E. coli strain to achieve a starting inoculum of approximately 2×10^6 CFU/ml per well. Test wells were exposed to nine concentrations of an antimicrobial agent of a representative fluoroquinolone (ciprofloxacin) ranging from 0- to 32-fold minimum inhibitory concentration (MIC). […] of those treatments (0, […], 1, 2, 4, and 8-fold MIC) were subcultured for determination of viable cell counts. Control wells received no ciprofloxacin. […] Post-imaging, the contents of the designated wells were removed and the number of viable bacteria in each well was determined using drop and filter count methods.
FIGS. 7a and 7b set forth the changes in bacterial viable counts and the Energy Number of the medium over time, respectively. The Energy Number of the medium over time as determined from thermodynamic modeling of the IR images collected by the detector was highly correlated (R^2=0.9891) to the viable counts obtained following 24 hr incubation (see FIG. 7c).

**Q.** Which “IRT time-kill result (Energy Number over time)” value (highest (16.0 and 32.0-fold MIC) concentration) does the source give for `O=C(O)c1cn(C2CC2)c2cc(N3CCNCC3)c(F)cc2c1=O` [ciprofloxacin] here?
**A.** rapid bacterial killing

**Q.** What about the “IRT time-kill result (Energy Number over time)” value (lowest (0.125 and 0.25-fold MIC) concentration) of the same compound?
**A.** net bacterial growth

From patent US20100311109A1, “NON-CONTACT METHOD FOR Q[…] IN THE DYNAMICS OF MICROBIAL POPULATIONS” (priority 2009, published 2010)
